For this experiment, the system named is NCI-H322M multicellular tumor spheroids, viability (% test/control). Briefly: Anticancer human tumor NCI-H322M cell line growth inhibition.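 On viability, T/C: spheroids exposed to compound for seven days before readout; 100% = DMSO vehicle control wells.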 The settings on record: for viability, T/C: stronger effect = lower value. In a few lines:
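Single agents and combinations were tested on spheroids built from tumor cells plus HUVEC and hMSC, at half-log dilutions starting at or near clinical Cmax, else 10 microM; final DMSO 0.25% (v/v).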

The mark [1] stands for this setting: curve of first compound, second compound 30 pM.
Where [2] appears, read: curve of first compound, second compound 94.9 pM.
The mark [3] stands for this setting: curve of first compound, second compound 0.0003 µM.
[4] abbreviates: curve of first compound, second compound 0.000949 µM.
Where [5] appears, read: curve of first compound, second compound 0.003 µM.
The mark [6] stands for this setting: second compound 30 pM, first compound 0.0316 µM.
The mark [7] stands for this setting: second compound 30 pM, first compound 0.1 µM.
Setting [8] is: second compound 30 pM, first compound 0.316 µM.
Setting [9] is: second compound 30 pM, first compound 1 µM.
Setting [10] is: second compound 30 pM, first compound 3.16 µM.
[11] abbreviates: second compound 30 pM, first compound 10 µM.
Setting [12] is: second compound 94.9 pM, first compound 0.0316 µM.
[13] abbreviates: second compound 94.9 pM, first compound 0.1 µM.
The mark [14] stands for this setting: second compound 94.9 pM, first compound 0.316 µM.
The mark [15] stands for this setting: second compound 94.9 pM, first compound 1 µM.
[16] abbreviates: second compound 94.9 pM, first compound 3.16 µM.
Where [17] appears, read: second compound 94.9 pM, first compound 10 µM.
The mark [18] stands for this setting: second compound 0.0003 µM, first compound 0.0316 µM.
Where [19] appears, read: second compound 0.0003 µM, first compound 0.1 µM.
The mark [20] stands for this setting: second compound 0.0003 µM, first compound 0.316 µM.
Setting [21] is: second compound 0.0003 µM, first compound 1 µM.
Setting [22] is: second compound 0.0003 µM, first compound 3.16 µM.
[23] abbreviates: second compound 0.0003 µM, first compound 10 µM.
The mark [24] stands for this setting: second compound 0.000949 µM, first compound 0.0316 µM.
Setting [25] is: second compound 0.000949 µM, first compound 0.1 µM.
[26] abbreviates: second compound 0.000949 µM, first compound 0.316 µM.
Setting [27] is: second compound 0.000949 µM, first compound 1 µM.
The mark [28] stands for this setting: second compound 0.000949 µM, first compound 3.16 µM.
The mark [29] stands for this setting: second compound 0.000949 µM, first compound 10 µM.
The mark [30] stands for this setting: second compound 0.003 µM, first compound 0.0316 µM.
[31] abbreviates: second compound 0.003 µM, first compound 0.1 µM.
[32] abbreviates: second compound 0.003 µM, first compound 0.316 µM.
Setting [33] is: second compound 0.003 µM, first compound 1 µM.
[34] abbreviates: second compound 0.003 µM, first compound 3.16 µM.
[35] abbreviates: second compound 0.003 µM, first compound 10 µM.

Where “and” joins values, the source holds several entries; their conditions need not be identical. Equal entries are not always repeated. Bounds are passed on as bounds.

In general, viability, T/C refers to the ratio of treated to control. One may read the IC50 as the midpoint of a concentration-inhibition curve. Take `CC1COCCN1c1cc(-c2ccnn2C)c2ccnc(-c3ccn[nH]3)c2n1` (stereo unspecified): the viability, T/C is 53.9% and 67.8% and 58.9% (compound 0.0316 µM); 40.6% and 54% and 49.9% (compound 0.1 µM); 29.4% and 41.8% and 36% (compound 0.316 µM); 29.7% and 35.6% and 33.4% (compound 1 µM); 29.8% and 38.9% and 33.5% (compound 3.16 µM); 32.7% and 44.9% and 37.6% (compound 10 µM). Moreover, under “curve of compound”, the half-inhibitory concentration (IC50) was 43.1 nM and 144 nM and 71.4 nM.

As for `Cn1ncnc1[C@H]1c2n[nH]c(=O)c3cc(F)cc(c23)N[C@@H]1c1ccc(F)cc1` + COc1cc2c(cc1O)CCNC21CSC2c3c(OC(C)=O)c(C)c4c(c3C(COC1=O)N1C(O)C3Cc5cc(C)c(OC)c(O)c5C(C21)N3C)OCO4, the IC50 under setting [1] was over 3000 nM; the IC50 under setting [2] is over 3000 nM; the IC50 under setting [3] was over 3000 nM; the IC50 under setting [4] amounted to 1520 nM; the IC50 under setting [5] is under 9.49 nM. In addition, the viability, T/C (second compound 30 pM, first compound 0.00949 µM) was 78.7%; the viability, T/C (second compound 30 pM, first compound 0.03 µM) is 89.2%; the viability, T/C (second compound 30 pM, first compound 0.0949 µM) is 68.8%; the viability, T/C (second compound 30 pM, first compound 0.3 µM) was 82%; the viability, T/C (second compound 30 pM, first compound 0.949 µM) is 75.2%; the viability, T/C (second compound 30 pM, first compound 3 µM) is 65.6%. For the same compound, the viability, T/C reads like this: (second compound 94.9 pM, first compound 0.00949 µM) 71.4%; (second compound 94.9 pM, first compound 0.03 µM) 78.2%; (second compound 94.9 pM, first compound 0.0949 µM) 78.8%; (second compound 94.9 pM, first compound 0.3 µM) 70.5%; (second compound 94.9 pM, first compound 0.949 µM) 68.2%; (second compound 94.9 pM, first compound 3 µM) 59.5%. The viability, T/C was 88.8% (second compound 0.0003 µM, first compound 0.00949 µM); 85% (second compound 0.0003 µM, first compound 0.03 µM); 82.9% (second compound 0.0003 µM, first compound 0.0949 µM); 77.8% (second compound 0.0003 µM, first compound 0.3 µM); 67.3% (second compound 0.0003 µM, first compound 0.949 µM); 62.9% (second compound 0.0003 µM, first compound 3 µM). The viability, T/C is 73.6% (second compound 0.000949 µM, first compound 0.00949 µM); 68.6% (second compound 0.000949 µM, first compound 0.03 µM); 72.5% (second compound 0.000949 µM, first compound 0.0949 µM); 64.4% (second compound 0.000949 µM, first compound 0.3 µM); 56.9% (second compound 0.000949 µM, first compound 0.949 µM); 40.3% (second compound 0.000949 µM, first compound 3 µM). For the same compound, the viability, T/C runs as follows: (second compound 0.003 µM, first compound 0.00949 µM) 6.87%; (second compound 0.003 µM, first compound 0.03 µM) 9.48%; (second compound 0.003 µM, first compound 0.0949 µM) 6.81%; (second compound 0.003 µM, first compound 0.3 µM) 3.83%; (second compound 0.003 µM, first compound 0.949 µM) 10.6%; (second compound 0.003 µM, first compound 3 µM) 1.7%.

For `[2H]c1nc(C)nc([2H])c1-c1cc(NC[C@@H](C)c2cccc3c(C(=O)NC)ccnc23)ncn1` + COc1cc2c(cc1O)CCNC21CSC2c3c(OC(C)=O)c(C)c4c(c3C(COC1=O)N1C(O)C3Cc5cc(C)c(OC)c(O)c5C(C21)N3C)OCO4, the IC50 is, setting by setting: under setting [1], over 10000 nM; under setting [2], over 10000 nM; under setting [3], over 10000 nM; under setting [4], over 10000 nM; under setting [5], under 31.6 nM. The viability, T/C was 80.4% under setting [6]; 89.1% under setting [7]; 85.6% under setting [8]; 84.7% under setting [9]; 75.2% under setting [10]; 90.2% under setting [11]. Further, the viability, T/C by setting is: under setting [12], 81.3%; under setting [13], 76.7%; under setting [14], 92.1%; under setting [15], 90.1%; under setting [16], 85.7%; under setting [17], 94.9%. Further, the viability, T/C under setting [18] is 89%; the viability, T/C under setting [19] is 78.9%; the viability, T/C under setting [20] is 90.5%; the viability, T/C under setting [21] was 84.2%; the viability, T/C under setting [22] is 94.9%; the viability, T/C under setting [23] is 93.3%. In addition, the viability, T/C under setting [24] was 81%; the viability, T/C under setting [25] was 79.3%; the viability, T/C under setting [26] was 84%; the viability, T/C under setting [27] is 82%; the viability, T/C under setting [28] was 76%; the viability, T/C under setting [29] was 75.8%. Also, the viability, T/C by setting is: under setting [30], 15.8%; under setting [31], 12.2%; under setting [32], 10.5%; under setting [33], 10.9%; under setting [34], 8.62%; under setting [35], 5.55%.

Consider `COc1ccc([C@@H](O)c2cc(-c3ncnc4cc(N5CCOCC5)ccc34)c(F)cc2Cl)nn1` + COc1cc2c(cc1O)CCNC21CSC2c3c(OC(C)=O)c(C)c4c(c3C(COC1=O)N1C(O)C3Cc5cc(C)c(OC)c(O)c5C(C21)N3C)OCO4, for which the 50% inhibitory concentration (IC50) is 2340 nM under setting [1]; 1640 nM under setting [2]; 1400 nM under setting [3]; 433 nM under setting [4]; under 31.6 nM under setting [5]. The viability, T/C by setting is: under setting [6], 101%; under setting [7], 75.9%; under setting [8], 79.1%; under setting [9], 62.1%; under setting [10], 45.3%; under setting [11], 30.4%. Also, the viability, T/C is, setting by setting: under setting [12], 96%; under setting [13], 89.1%; under setting [14], 82.2%; under setting [15], 55.8%; under setting [16], 41.5%; under setting [17], 32%. For the same compound, the viability, T/C by setting is: under setting [18], 106%; under setting [19], 94.1%; under setting [20], 71.1%; under setting [21], 56.4%; under setting [22], 38.2%; under setting [23], 26.8%. Further, the viability, T/C runs as follows: under setting [24], 84.2%; under setting [25], 75.7%; under setting [26], 58.7%; under setting [27], 28.3%; under setting [28], 5.57%; under setting [29], 2.25%. Also, the viability, T/C is, setting by setting: under setting [30], 3.77%; under setting [31], 3.3%; under setting [32], 5.4%; under setting [33], 1.15%; under setting [34], 1.98%; under setting [35], 2.69%.

Turning to `CC[C@@]1(O)C(=O)OCc2c1cc1n(c2=O)Cc2cc3c(CN(C)C)c(O)ccc3nc2-1`, the viability, T/C reads like this: (compound 0.003 µM) 89.7% [middle of 10 runs]; (compound 0.0949 µM) 67.4% [middle of 10 runs]; (compound 0.3 µM) 51.5% [middle of 10 runs]. Moreover, the IC50 (compound alone, run of 12/12/2019) is > 300 nM and 254 nM.

The record behind these values is PubChem BioAssay AID1845211 (Molecular Pharmacology Branch, DTP, NCI, 2023).
